Laboratory results: patent US20230382925A1, “MODULATORS OF CYSTIC FIBROSIS TRANSMEMBRANE CONDUCTANCE REGULATOR” (VERTEX PHARMACEUTICALS INCORPORATED, priority 2020, published 2023)

Biological target: CFTR (Homo sapiens, UniProt P13569)
Assay: Membrane Potential Dye, Enteroid Assay A
Assay type: cell-based
Details: for EC50: read-out: Ent. A EC50
Protocol: Base medium (ADF+++) consisted of Advanced […], 2 mM Glutamax, 10 mM HEPES, 1 μg/mL penicillin/streptomycin.
Intestinal enteroid maintenance medium (IEMMN) consisted of ADF+++, 1× B27 supplement, 1× N2 supplement, 1.25 mM N-acetyl cysteine, 10 mM Nicotinamide, 50 ng/mL hEGF, 10 nM Gastrin, 1 μg/mL hR-spondin-1, 100 ng/mL hNoggin, TGF-b type 1 inhibitor A-83-01, 100 μg/mL Primocin, 10 μM P38 MAPK inhibitor SB202190.
Bath 1 Buffer consisted of 1 mM MgCl2, 160 mM NaCl, 4.5 mM KCl, 10 mM HEPES, 10 mM Glucose, 2 mM CaCl2).
Chloride Free Buffer consisted of 1 mM Magnesium Gluconate, 2 mM Calcium Gluconate, 4.5 mM Potassium Gluconate, 160 mM Sodium Gluconate, 10 mM HEPES, 10 mM Glucose.
Bath 1 Dye Solution consisted of Bath 1 Buffer, 0.04% Pluronic F127, 20 μM Methyl Oxonol, 30 μM CaCCinh-A01, 30 μM Chicago Sky Blue.
Chloride Free Dye Solution consisted of Chloride Free Buffer, 0.04% Pluronic F127, 20 μM Methyl Oxonol, 30 μM CaCCinh-A01, 30 μM Chicago Sky Blue.
Chloride Free Dye Stimulation Solution consisted of Chloride Free Dye Solution, 10 μM forskolin, 100 μM IBMX, and 300 nM Compound III.
Human intestinal epithelial enteroid cells were obtained from the Hubrecht Institute for Developmental Biology and Stem Cell Research, Utrecht, The Netherlands and expanded in T-Flasks as previously described (Dekkers J F, Wiegerinck C L, de Jonge H R, Bronsveld I, Janssens H M, de Winter-de Groot K M, Brandsma A M, de Jong N W M, Bijvelds M J C, Scholte B J, Nieuwenhuis E E S, van den Brink S, Clevers H, van der Ent C K, Middendorp S and M Beekman J M. A functional CFTR assay using primary cystic fibrosis intestinal organoids. Nat Med. 2013 July; 19(7):939-45.).
3. Enteroid Cell Harvesting and Seeding
Cells were recovered in cell recovery solution, collected by centrifugation at 650 rpm for 5 min at 4° C., resuspended in TrypLE and incubated for 5 min at 37° C. Cells were then collected by centrifugation at 650 rpm for 5 min at 4° C. and resuspended in IEMM containing 10 μM ROCK inhibitor (RI). The cell suspension was passed through a 40 μm cell strainer and resuspended at 1×10^6 cells/mL in IEMM containing 10 μM RI. Cells were seeded at 5000 cells/well into multi-well plates and incubated for overnight at 37° C., 95% humidity and 5% CO2 prior to assay.
4. Membrane Potential Dye, Enteroid Assay A
Enteroid cells were incubated with test compound in IEMM for 18-24 hours at 37° C., 95% humidity and 5% CO2. […] Briefly, cells were washed 5 times in Bath 1 Buffer. Bath 1 Dye Solution was added, and the cells were incubated for 25 min at room temperature. Following dye incubation, cells were washed 3 times in Chloride Free Dye Solution. Chloride transport was initiated by addition of Chloride Free Dye Stimulation Solution and the fluorescence signal was read for 15 min. […] Chloride transport was then expressed as a percentage of the chloride transport following treatment with 3 μM N-[(6-amino-2-pyridyl)sulfonyl]-6-(3-fluoro-5-isobutoxy-phenyl)-2-[(4S)-2,2,4-trimethylpyrrolidin-1-yl]pyridine-3-carboxamide, 3 μM (R)-1-(2,2-difluorobenzo[d][1,3]dioxol-5-yl)-N-(1-(2,3-dihydroxypropyl)-6-fluoro-2-(1-hydroxy-2-methylpropan-2-yl)-1H-indol-5-yl)cyclopropanecarboxamide and 300 nM acute N-[2,4-bis(1,1-dimethylethyl)-5-hydroxyphenyl]-1,4-dihydro-4-oxoquinoline-3-carboxamide triple combination control (% Activity).

Chain of CFTR (P13569 with tags, fused parts or gaps DEL508-508): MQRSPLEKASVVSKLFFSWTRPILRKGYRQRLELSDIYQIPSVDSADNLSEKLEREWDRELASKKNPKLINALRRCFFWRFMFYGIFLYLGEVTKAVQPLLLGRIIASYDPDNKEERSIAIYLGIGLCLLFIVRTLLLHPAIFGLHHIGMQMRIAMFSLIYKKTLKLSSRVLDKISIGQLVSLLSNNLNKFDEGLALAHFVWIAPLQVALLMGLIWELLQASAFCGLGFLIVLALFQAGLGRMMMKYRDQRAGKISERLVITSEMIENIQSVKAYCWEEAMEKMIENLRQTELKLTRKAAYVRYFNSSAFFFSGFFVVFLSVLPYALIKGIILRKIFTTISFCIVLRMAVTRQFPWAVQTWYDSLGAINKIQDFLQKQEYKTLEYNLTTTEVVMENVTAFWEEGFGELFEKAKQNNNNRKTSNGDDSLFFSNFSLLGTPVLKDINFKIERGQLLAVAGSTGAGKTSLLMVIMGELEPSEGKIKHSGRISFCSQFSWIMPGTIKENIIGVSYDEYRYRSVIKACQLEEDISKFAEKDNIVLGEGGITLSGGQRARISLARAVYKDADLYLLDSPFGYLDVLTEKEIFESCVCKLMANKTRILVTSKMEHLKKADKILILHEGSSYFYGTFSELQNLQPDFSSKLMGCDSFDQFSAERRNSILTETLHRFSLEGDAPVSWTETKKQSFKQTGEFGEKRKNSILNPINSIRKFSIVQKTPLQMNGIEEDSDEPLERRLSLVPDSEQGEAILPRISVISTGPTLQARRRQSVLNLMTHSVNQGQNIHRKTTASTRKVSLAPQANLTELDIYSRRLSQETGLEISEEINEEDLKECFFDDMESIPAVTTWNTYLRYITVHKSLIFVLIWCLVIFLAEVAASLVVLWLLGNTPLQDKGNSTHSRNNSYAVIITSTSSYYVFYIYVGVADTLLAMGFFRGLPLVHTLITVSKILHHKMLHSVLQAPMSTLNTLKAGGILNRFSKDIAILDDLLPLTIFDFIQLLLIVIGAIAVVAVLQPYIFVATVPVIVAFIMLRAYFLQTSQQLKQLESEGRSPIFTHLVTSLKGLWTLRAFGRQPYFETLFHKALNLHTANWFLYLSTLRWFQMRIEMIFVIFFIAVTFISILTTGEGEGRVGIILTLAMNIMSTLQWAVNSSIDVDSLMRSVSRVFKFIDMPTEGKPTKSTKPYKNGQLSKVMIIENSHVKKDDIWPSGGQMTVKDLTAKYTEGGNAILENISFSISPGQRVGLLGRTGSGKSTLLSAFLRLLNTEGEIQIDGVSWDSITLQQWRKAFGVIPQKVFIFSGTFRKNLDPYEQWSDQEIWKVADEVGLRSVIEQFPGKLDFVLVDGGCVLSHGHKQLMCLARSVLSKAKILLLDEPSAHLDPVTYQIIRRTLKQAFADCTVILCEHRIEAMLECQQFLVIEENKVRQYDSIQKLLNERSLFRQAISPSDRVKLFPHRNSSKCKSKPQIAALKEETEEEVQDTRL

Structure (SMILES)	Ent. A Max Activity (%)	EC50 [nM]
Cc1cccc(C)c1-c1cc2nc(n1)NS(=O)(=O)c1cccc(c1)C(=O)N([C@H]1C[C@]3(CCN(C(C)C)C3)C1)[C@H](CC(C)C)CO2 (single isomer, unassigned) [Compound 34]	+++ (+++ is >60%)	< 1000
Cc1cccc(C)c1-c1cc2nc(n1)NS(=O)(=O)c1cccc(c1)C(=O)N(C1CC3(CCN(C)CC3)C1)C(CC1(C(F)(F)F)CC1)CO2 (single isomer, unassigned) [Compound 136, 6-(2,6-Dimethylphenyl)-12-(7-methyl-7-azaspiro[3.5]nonan-2-yl)-2,2-dioxo-11-[[1-(trifluoromethyl)cyclopropyl]methyl]-9-oxa-2λ^6-thia-3,5,12,19-tetrazatricyclo[12.3.1.14,8]nonadeca-1(18),4(19),5,7,14,16-hexaen-13-one]	+++ (+++ is >60%)	< 1000
CC(=O)N1CC2(CC(N3C(=O)c4cccc(c4)S(=O)(=O)Nc4nc(cc(-c5c(C)cccc5C)n4)OC[C@H]3CC(C)C)C2)C1 [Compound 335]	++ (++ is 30-60%)	< 1000
Cc1cccc(C)c1-c1cc2nc(n1)NS(=O)(=O)c1cccc(c1)C(=O)N([C@H]1C[C@@H](OCc3ccccc3)C1)[C@H](CC(C)C)CO2 (single isomer, unassigned) [Compound 42]	++ (++ is 30-60%)	< 1000
CNC(=O)[C@H]1CC2(C1)C[C@H](N1C(=O)c3cccc(c3)S(=O)(=O)Nc3nc(cc(-c4c(C)cccc4C)n3)OC[C@H]1CC(C)C)C2 (stereo in doubt) [Compound 347]	+++ (+++ is >60%)	< 1000
Cc1cccc(C)c1-c1cc2nc(n1)NS(=O)(=O)c1cccc(c1)C(=O)N(C1CC3(CCN(CCC(C)(C)C)CC3)C1)[C@H](CC(C)C)CO2 [Compound 340]	+++ (+++ is >60%)	< 1000
CC(C)C[C@@H]1COc2cc(-c3ccccc3C(C)C)nc(n2)NS(=O)(=O)c2cccc(c2)C(=O)N1C1CC2(CCN(C(=O)OC(C)(C)C)CC2)C1 [Compound 12, tert-Butyl 2-[(11R)-11-isobutyl-6-(2-isopropylphenyl)-2,2,13-trioxo-9-oxa-2λ^6-thia-3,5,12,19-tetrazatricyclo[12.3.1.14,8]nonadeca-1(18),4,6,8(19),14,16-hexaen-12-yl]-7-azaspiro[3.5]nonane-7-carboxylate]	++ (++ is 30-60%)	< 1000
CC(C)C[C@@H]1COc2cc(-c3ccccc3-c3ccccc3)nc(n2)NS(=O)(=O)c2cccc(c2)C(=O)N1C1CC2(CCN(C)CC2)C1 [Compound 471]	+++ (+++ is >60%)	< 1000
Cc1cccc(C)c1-c1cc2nc(n1)NS(=O)(=O)c1cccc(c1)C(=O)N([C@H]1CC3(C[C@H](N(C)C)C3)C1)[C@H](CC(C)C)CO2 (stereo partly drawn) [Compound 314]	+++ (+++ is >60%)	< 1000
Cc1cccc(C)c1-c1cc2nc(n1)NS(=O)(=O)c1cccc(c1)C(=O)N(C1CC3(CC3)C1)C(CC(F)(F)F)CO2 (single isomer, unassigned) [Compound 109, 6-(2,6-Dimethylphenyl)-2,2-dioxo-12-spiro[2.3]hexan-5-yl-11-(2,2,2-trifluoroethyl)-9-oxa-2λ^6-thia-3,5,12,19-tetrazatricyclo[12.3.1.14,8]nonadeca-1(18),4(19),5,7,14,16-hexaen-13-one]	++ (++ is 30-60%)	1000 to 3000
COC(=O)N1CCC2(CC1)CC(N1C(=O)c3cccc(c3)S(=O)(=O)Nc3nc(cc(C4CCCCC4(C)C)n3)OC[C@H]1CC(C)C)C2 (stereo partly drawn) [Compound 395]	++ (++ is 30-60%)	< 1000
Cc1cccc(C)c1-c1cc2nc(n1)NS(=O)(=O)c1cccc(c1)C(=O)N(C1CC(C(=O)N3CCN(C)CC3)C1)[C@H](CC(C)C)CO2 (stereo partly drawn) [Compound 36, (11R)-6-(2,6-dimethylphenyl)-11-isobutyl-12-[3-(4-methylpiperazine-1-carbonyl)cyclobutyl]-2,2-dioxo-9-oxa-2λ^6-thia-3,5,12,19-tetrazatricyclo[12.3.1.14,8]nonadeca-1(18),4(19),5,7,14,16-hexaen-13-one]	+++ (+++ is >60%)	< 1000
Cc1cccc(C)c1-c1cc2nc(n1)NS(=O)(=O)c1cccc(c1)C(=O)N(C1CC3(CCCC3)C1)[C@H](CC(C)C)CO2 [Compound 339]	+++ (+++ is >60%)	< 1000
Cc1cccc(C)c1-c1cc2nc(n1)NS(=O)(=O)c1cccc(c1)C(=O)N(C1CC3(CCN(C(C)C)CC3)C1)[C@H](CC(C)C)CO2 [Compound 17, (11R)-6-(2,6-Dimethylphenyl)-11-isobutyl-12-(7-isopropyl-7-azaspiro[3.5]nonan-2-yl)-2,2-dioxo-9-oxa-2λ^6-thia-3,5,12,19-tetrazatricyclo[12.3.1.14,8]nonadeca-1(18),4(19),5,7,14,16-hexaen-13-one]	+++ (+++ is >60%)	< 1000
Cc1cccc(C)c1-c1cc2nc(n1)NS(=O)(=O)c1cccc(c1)C(=O)N([C@H]1C[C@@H](CO)C1)[C@H](CC(C)C)CO2 (single isomer, unassigned) [Compound 40]	+++ (+++ is >60%)	1000 to 3000
COC(=O)N1CCC2(CC(N3C(=O)c4cccc(c4)S(=O)(=O)Nc4nc(cc(-c5c(C)cccc5C)n4)OC[C@H]3CC(C)C)C2)C1 (stereo partly drawn) [Compound 325]	+++ (+++ is >60%)	< 1000
Cc1cccc(C)c1-c1cc2nc(n1)NS(=O)(=O)c1cccc(c1)C(=O)N(C1CC3(CCN(C[C@H](O)CO)CC3)C1)[C@H](CC(C)C)CO2 [Compound 341]	+++ (+++ is >60%)	< 1000
COC(=O)N1CCCC2(CC(N3C(=O)c4cccc(c4)S(=O)(=O)Nc4nc(cc(-c5c(C)cccc5C)n4)OC[C@H]3CC(C)C)C2)C1 (stereo partly drawn) [Compound 324]	+++ (+++ is >60%)	< 1000
Cc1cccc(C)c1-c1cc2nc(n1)NS(=O)(=O)c1cccc(c1)C(=O)N(C1CC3(CC3)C1)C(CC(C)(C)C(F)(F)F)CO2 (stereo not drawn) [Compound 216]	+++ (+++ is >60%)	< 1000
Cc1cccc(C)c1-c1cc2nc(n1)NS(=O)(=O)c1cccc(c1)C(=O)N(C1CC3(CCN(C)CC3)C1)C(CC1(C(F)(F)F)CC1)CO2 (single isomer, unassigned) [Compound 137, 6-(2,6-dimethylphenyl)-12-(7-methyl-7-azaspiro[3.5]nonan-2-yl)-2,2-dioxo-11-[[1-(trifluoromethyl)cyclopropyl]methyl]-9-oxa-2λ^6-thia-3,5,12,19-tetrazatricyclo[12.3.1.14,8]nonadeca-1(18),4(19),5,7,14,16-hexaen-13-one]	+++ (+++ is >60%)	1000 to 3000
Cc1cccc(C)c1-c1cc2nc(n1)NS(=O)(=O)c1cccc(c1)C(=O)N(C1CC3(CC3)C1)C(CC(F)(F)F)CO2 (single isomer, unassigned) [Compound 125, 6-(2,6-dimethylphenyl)-12-{spiro[2.3]hexan-5-yl}-11-(2,2,2-trifluoroethyl)-9-oxa-2λ^6-thia-3,5,12,19-tetraazatricyclo[12.3.1.14,8]nonadeca-1(17),4(19),5,7,14(18),15-hexaene-2,2,13-trione]	++ (++ is 30-60%)	< 1000
